Results from patent publication US5872280A, “Leukotriene antagonistic benzoic acid derivatives” (Bayer Aktiengesellschaft, priority 1995, dated 1999).

How the values were obtained:
both receptor types = conditions: Tudhope et al., Eur. J. Pharmacol. (1994) 264, 317-323; cited from earlier work
[1] = molecular target: T1, ^3 H-LTD4 binding to guinea-pig lung membranes (Cavia porcellus, UniProt Q2NNR5); assay: inhibition of ^3 H-LTD4 binding to guinea-pig lung membranes; conditions: for Ki: read-out: pKi values for the inhibition of ^3 H-LTD4 binding to guinea-pig lung membranes (converted)
T1 construct: from tissue; host or cells: guinea-pig lung membranes
T1 sequence (Q2NNR5 1-340): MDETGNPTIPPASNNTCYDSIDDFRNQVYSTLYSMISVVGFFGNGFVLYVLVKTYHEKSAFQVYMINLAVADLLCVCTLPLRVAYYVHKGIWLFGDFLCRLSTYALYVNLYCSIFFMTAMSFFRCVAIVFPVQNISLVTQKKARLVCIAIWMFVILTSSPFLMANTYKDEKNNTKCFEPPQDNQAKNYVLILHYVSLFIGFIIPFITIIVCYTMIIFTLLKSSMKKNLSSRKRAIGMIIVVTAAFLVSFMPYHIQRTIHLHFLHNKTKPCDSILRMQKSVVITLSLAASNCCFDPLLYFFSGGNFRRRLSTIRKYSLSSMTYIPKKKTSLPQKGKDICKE
From the text: (§1) The representative preparations used to evaluate these compounds were the inhibition of ^3 H-LTD4 binding to guinea-pig lung membranes, as described in EP 494621, and the inhibition of both LTD4 -induced and LTC4 -induced contractions of guinea-pig tracheae as described by Tudhope et al., Eur. J. Pharmacol (1994) 264, 317-323.

[2] = molecular target: T2, LTD4 -induced contractions of guinea-pig trachea (Cavia porcellus, UniProt Q2NNR5); assay: inhibition of LTD4-induced contractions of guinea-pig trachea; type: cell-based; conditions: for Kb: read-out: pKB values for the inhibition of LTD4 -induced contractions of guinea-pig trachea (converted)
T2 construct: contractions of guinea-pig tracheae; from tissue; host or cells: guinea-pig trachea
T2 sequence (Q2NNR5 1-340): T1 sequence (Q2NNR5 1-340)
From the text: as §1

[3] = molecular target: T3, LTC4 -induced contractions of guinea-pig trachea (Cavia porcellus, UniProt H0VW05); assay: inhibition of LTC4-induced contractions of guinea-pig trachea; type: cell-based; conditions: read-out: pKB values for the inhibition of LTC4 -induced contractions of guinea-pig trachea (converted)
T3 construct: contractions of guinea-pig tracheae; from tissue; host or cells: guinea-pig trachea
T3 sequence (H0VW05 1-317): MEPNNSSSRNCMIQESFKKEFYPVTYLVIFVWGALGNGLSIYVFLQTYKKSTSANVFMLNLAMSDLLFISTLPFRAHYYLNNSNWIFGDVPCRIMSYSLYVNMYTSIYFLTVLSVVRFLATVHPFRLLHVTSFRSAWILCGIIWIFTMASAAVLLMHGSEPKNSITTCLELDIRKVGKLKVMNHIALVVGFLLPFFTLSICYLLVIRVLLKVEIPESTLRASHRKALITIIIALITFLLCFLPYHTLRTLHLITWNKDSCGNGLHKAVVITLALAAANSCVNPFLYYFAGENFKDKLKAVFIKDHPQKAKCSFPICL
From the text: as §1

Structure (SMILES)	Ki [1]	Kb [2]	also measured
CCCCC/C=C\C\C=C/C=C/C=C/[C@@H](Sc1ccc(C(=O)O)cc1)[C@@H](O)CCCC(=O)O [Compound A]			activity at both receptor types (both receptor types): comparable activity at both receptor types
O=C(O)CCCNC(=O)c1cc(C(=O)O)ccc1OCCCc1ccc(OCCCCOc2ccccc2)cc1 [Example 4]	794 nM	126 nM	Kb [3]: 63.1 nM
O=C(O)CNC(=O)c1cc(C(=O)O)ccc1OCCCc1ccc(OCCCCOc2ccccc2)cc1 [Example 5]	398 nM	79.4 nM	Kb [3]: 1260 nM
O=C(O)CCNC(=O)c1cc(C(=O)O)ccc1OCCCc1ccc(OCCCCOc2ccccc2)cc1 [Example 6]	251 nM	79.4 nM	Kb [3]: 79.4 nM
O=C(O)CCCCNC(=O)c1cc(C(=O)O)ccc1OCCCc1ccc(OCCCCOc2ccccc2)cc1 [Example 7]			pKi values for the inhibition of ^3 H-LTD4 binding to guinea-pig lung membranes [1]: 5.7; pKB values for the inhibition of LTD4 -induced contractions of guinea-pig trachea [2]: 6.6
O=C(O)c1cccc(NC(=O)c2cc(C(=O)O)ccc2OCCCc2ccc(OCCCCOc3ccccc3)cc2)c1 [Example 8, N-(3-carboxyphenyl)-2-[3-{4-phenoxybutoxy}phenylpropoxy]-5-carboxybenzamide]		631 nM	
O=C(O)c1ccc(NC(=O)c2cc(C(=O)O)ccc2OCCCc2ccc(OCCCCOc3ccccc3)cc2)cc1 [Example 10]		316 nM	Kb [3]: 126 nM
O=C(O)CCCC(=O)Nc1cc(C(=O)O)ccc1OCCCc1ccc(OCCCCOc2ccccc2)cc1 [Example 11]	1580 nM	251 nM	Kb [3]: 1000 nM
O=C(O)CCCCC(=O)Nc1cc(C(=O)O)ccc1OCCCc1ccc(OCCCCOc2ccccc2)cc1 [Example 12]	1000 nM	251 nM	Kb [3]: 501 nM
O=C(O)CCC(=O)Nc1cc(C(=O)O)ccc1OCCCc1ccc(OCCCCOc2ccccc2)cc1 [Example 13]	1000 nM	126 nM	
O=C(O)CC(=O)Nc1cc(C(=O)O)ccc1OCCCc1ccc(OCCCCOc2ccccc2)cc1 [Example 14]	316 nM	251 nM	
O=C(O)CCCC(=O)Nc1cc(C(=O)O)ccc1OCCc1ccc(OCCCCOc2ccccc2)cc1 [Example 15]			pKi values for the inhibition of ^3 H-LTD4 binding to guinea-pig lung membranes [1]: 5.3; pKB values for the inhibition of LTD4 -induced contractions of guinea-pig trachea [2]: 6.4
O=C(O)COc1cc(C(=O)O)ccc1NC(=O)CCc1ccc(OCCCCOc2ccccc2)cc1 [Example 16]	50.1 nM	50.1 nM	
O=C(O)CCCOc1cc(C(=O)O)ccc1NC(=O)CCc1ccc(OCCCCOc2ccccc2)cc1 [Example 17]	398 nM	251 nM	
O=C(O)CCCCCOc1cc(C(=O)O)ccc1NC(=O)CCc1ccc(OCCCCOc2ccccc2)cc1 [Example 18]	631 nM	79.4 nM	
O=C(O)CCCSc1cc(C(=O)O)ccc1NC(=O)CCc1ccc(OCCCCOc2ccccc2)cc1 [Example 20]		316 nM	
O=C(O)CCCC(=O)c1cc(C(=O)O)ccc1NC(=O)CCc1ccc(OCCCCOc2ccccc2)cc1 [Example 21]		31.6 nM	
O=C(CCc1ccc(OCCCCOc2ccccc2)cc1)Nc1ccc(C(=O)O)cc1C(=O)O [Example 22]	251 nM	50.1 nM	
O=C(CCc1ccc(OCCCCOc2ccccc2)cc1)Nc1cc(C(=O)O)cc(C(=O)O)c1 [Example 23]	3160 nM	1260 nM	
O=C(CCCc1ccc(OCCCCOc2ccccc2)cc1)Nc1ccc(C(=O)O)cc1C(=O)O [Example 24, 3-carboxy-4-([4-{4-phenoxybutoxy}phenyl]-1-oxobutyl)aminobenzoic acid]	501 nM	50.1 nM	
O=C(CCCc1ccc(OCCCCOc2ccccc2)cc1)Nc1cc(C(=O)O)cc(C(=O)O)c1 [Example 25, 3-carboxy-5-([4-{4-phenoxybutoxy}phenyl]-1-oxobutyl)aminobenzoic acid]	1580 nM	1580 nM	
O=C(Cc1ccc(OCCCCOc2ccccc2)cc1)Nc1ccc(C(=O)O)cc1C(=O)O [Example 26]		1260 nM	
CS(=O)(=O)Nc1ccc(OCCCc2ccc(OCCCCOc3ccccc3)cc2)c(C(=O)O)c1 [Example 29, 2-(3-[4-{4-phenoxybutoxy}phenyl]propoxy)-5-(methylsulfonylamino)benzoic acid]	2000 nM	2000 nM	
O=C(O)c1cc(NS(=O)(=O)c2ccccc2)ccc1OCCCc1ccc(OCCCCOc2ccccc2)cc1 [Example 30, 2-(3-[4-{4-phenoxybutoxy}phenyl]propoxy)-5-(phenylsulfonylamino)benzoic acid]	5010 nM	20000 nM	
CS(=O)(=O)Nc1ccc(OCCCc2ccc(OCCCCOc3ccccc3)cc2)c(C(=O)NCCC(=O)O)c1 [Example 31, 4-aza-5-(5-[methylsulfonylamino]-2-(3-[4-{4-phenoxybutoxy}phenyl]-propoxy)phenyl)-5-oxopentanoic acid]	316 nM	3980 nM	
O=C(O)CCC(=O)Nc1cc(C(=O)O)ccc1SCCc1ccc(OCCCCOc2ccccc2)cc1 [Example 32, 5-aza-5-(5-carboxy-2-(3-[4-{4-phenoxybutoxy}phenyl]-1-thiapropyl) -phenyl)-4-oxopentanoic acid]		316 nM	
O=C(O)CCCC(=O)Nc1cc(C(=O)O)ccc1SCCc1ccc(OCCCCOc2ccccc2)cc1 [Example 33]			pKB values for the inhibition of LTD4 -induced contractions of guinea-pig trachea [2]: 6.6
CS(=O)(=O)Nc1ccc(SCCc2ccc(OCCCCOc3ccccc3)cc2)c(C(=O)NCCC(=O)O)c1 [Example 34, 5-aza-5-(5-methylsulfonylamino]-2-(3-[4-{4-phenoxybutoxy}phenyl]-1-thiapropyl)phenyl-4-oxopentanoic acid]			pKi values for the inhibition of ^3 H-LTD4 binding to guinea-pig lung membranes [1]: 5.7; pKB values for the inhibition of LTD4 -induced contractions of guinea-pig trachea [2]: 5.6
O=C(O)CCCNC(=O)c1cc(C(=O)O)ccc1OCCCc1cccc(OCCCCOc2ccccc2)c1 [Example 36, 5-aza-6-(5-carboxy-2-(3-[3-{4-phenoxybutoxy}phenyl]propoxy)phenyl)-6-oxohexanoic acid]	25100 nM		
